Like-named read-outs stand apart in the source and are kept apart here.
Tested on: Puerto Rican strain of Schistosoma mansoni
Assay: Effectiveness in treatment of schistosomiasis in infected mice (worm kill after oral dosing, perfusion and liver count 14 days post treatment)
Type: in vivo
Details: 336 h, oral gavage
Experimental: Male mice are infected with 100 cercariae of Schistosoma mansoni and used 8-10 weeks post infection. The test compound(s) are suspended (at the desired concentration level) in a 10% solution of Cremophor EL in 0.2 M phosphate buffer at pH 7.0 (Cremophor EL is the registered trademark name of Badische Anilin und Soda-Fabrik of Ludwigshafen, West Germany for glycerol-polyethylene glycolricinoleate).
The resulting mixture is then administered to the mice by an oral gavage needle, using 0.3 ml. of the above suspension for a 30-gram animal. Fourteen days post treatment, the mice are killed by cervical dislocation and living worms are recovered from the blood vessels by perfusion. The liver is then removed and compressed between two glass plates, and the encapsulated (i.e., dead) worms are counted.
Effective doses required to kill 50% and 99% of male worms (i.e., ED50 and ED99 values, respectively) are calculated from the regression line of the dose response data.

CC(C)NCC1CCc2cc(CO)c([N+](=O)[O-])cc2N1 (racemic) [Oxamniquine, dl-6-hydroxymethyl-2-isopropylaminomethyl-7-nitro-1,2,3,4-tetrahydroquinoline] gave an ED50 (compound alone, dose to kill 50% of male worms) of 39 mg/kg, an ED99 (compound alone, dose to kill 99% of male worms) of 89 mg/kg and an ED50 (oxamniquine in combination with 25 mg./kg. of praziquantel, 50% of male worms killed) of 8.6 mg/kg. It also gave an ED99 (oxamniquine in combination with 25 mg./kg. of praziquantel, 99% of male worms killed) of 16.6 mg/kg.
For O=C(C1CCCCC1)N1CC(=O)N2CCc3ccccc3C2C1 (stereo not drawn) [Praziquantel, 2-cyclohexylcarbonyl-4-oxo-1,2,3,6,7,11b-hexahydro-4H-pyrazino [2,1a]isoquinoline], the ED50 (compound alone, dose to kill 50% of male worms, read-out: ED50) was 156 mg/kg and the ED50 (praziquantel in combination with 12.5 mg./kg. of oxamniquine, 50% of male worms killed, read-out: ED50) was 4.9 mg/kg.
